Source: publication PMC3588144 (Molecular cancer therapeutics, 2012)

Experiments:
[1] = system: NCI-N87 xenograft; assay: HER2 overexpressing gastric NCI-N87 xenograft model; details: 25 mg/kg i.v.; not statistically significant
[2] = system: 436 cancer cell lines; type: cell-based, human
[3] = system: PC3 xenograft
[4] = system: MV4-11 cells (FLT3-ITD); type: cell-based, human; details: 100 nmol/L for 3 hours
[5] = system: pAkt(S473) and pS6(S240/244) in PC3 tumor tissue; details: mouse, in vivo
[6] = system: pS6 and pAkt in COLO-205 tumor tissue; assay: pharmacodynamic markers in COLO-205 tumors; type: in vivo, mice; details: 25 mg/kg, 1h after the last dose on day 17
[7] = tolerability / maximum-tolerated dose; type: in vivo, mice; details: for maximum observed body weight loss: 14 days, male Balb/C nude mice
[8] = pharmacokinetics after a single oral dose; design: species or system mice; details: mouse, in vivo

O=c1[nH]cc(F)c(=O)[nH]1 [5-FU, 5-fluorouracil]
tumor growth inhibition [1]: 32%

CN(C)C/C=C/C(=O)Nc1cc2c(Nc3ccc(F)c(Cl)c3)ncnc2cc1O[C@H]1CCOC1 [BIBW2992]
sensitivity of ERBB2-amplified cells with coincident PIK3CA mutations [2]: did not observe increased sensitivity

CO[C@H]1C[C@@H]2CC[C@@H](C)[C@@](O)(O2)C(=O)C(=O)N2CCCC[C@H]2C(=O)O[C@H]([C@H](C)C[C@@H]2CC[C@@H](OCCO)[C@H](OC)C2)CC(=O)[C@H](C)/C=C(\C)[C@@H](O)[C@@H](OC)C(=O)[C@H](C)C[C@H](C)/C=C/C=C/C=C/1C [Everolimus, everolimus, reference compound]
tumor growth inhibition (TGI) ([3]; 5 mg/kg p.o. daily, 28 days): 133% | inhibition of phosphorylation of Akt [4]: not able to inhibit

Cc1nc2c(-c3cnc(N)nc3)nc(N3CCOCC3)nc2n1C(C)C [VS-5584, 5-(9-isopropyl-8-methyl-2-morpholin-4-yl-9H-purin-6-yl)-pyrimidin-2-ylamine]
pAkt(S473) blocked [5]: ≥ 90% | pS6(S240/244) blocked [5]: ≥ 90% | reduction of pAkt in tumor [6]: 85% | reduction of pS6 in tumor [6]: 95% | maximum observed body weight loss ([7]; 25 mg/kg once daily, data not shown): 3.1% | maximum observed body weight loss ([7]; 35 mg/kg once daily, data not shown): 13.9% | peripheral blood cell counts ([7]; 25 and 35 mg/kg, data not shown): remained within normal levels without significant changes | tolerability of a single dose ([7]; single dose up to 100 mg/kg): well tolerated | Tmax [8]: 0.9 h | half-life [8]: 10 h | weight loss (mean) ([3]; 11 and 25 mg/kg, day 27): 4.7%
